How the values were obtained:
MCF-7 cells = test: Breast Cancer Cell Viability Assay (MCF-7, CellTiter-Glo); assay type: cell-based; details: 5 days' compound exposure; for IC50: Homo sapiens, MCF7, 120 h
In short: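 MCF-7 cells, 320 per well in RPMI with 10% FBS and 20 mM HEPES, adhered overnight, then exposed 5 days to an eleven-point semilog dilution (final 0.3-0.000003 μM). CellTiter-Glo luminescence read; % viability = (sample − cell-free background)/(untreated − background) × 100.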

ER-α = molecular target: T1, ER-α (Homo sapiens, UniProt P03372); test: Breast Cancer Cell ER-α In Cell Western Assay (SP1); assay type: cell-based; details: MCF-7 cells, SP1 antibody, 4 or 24 hr post compound addition; for Emax: MCF7, read-out: ER-α In Cell Western Assay (SP1) Max Response; for DC50: read-out: ER-α In Cell Western Assay (SP1) IC50
T1 sequence (P03372 1-595): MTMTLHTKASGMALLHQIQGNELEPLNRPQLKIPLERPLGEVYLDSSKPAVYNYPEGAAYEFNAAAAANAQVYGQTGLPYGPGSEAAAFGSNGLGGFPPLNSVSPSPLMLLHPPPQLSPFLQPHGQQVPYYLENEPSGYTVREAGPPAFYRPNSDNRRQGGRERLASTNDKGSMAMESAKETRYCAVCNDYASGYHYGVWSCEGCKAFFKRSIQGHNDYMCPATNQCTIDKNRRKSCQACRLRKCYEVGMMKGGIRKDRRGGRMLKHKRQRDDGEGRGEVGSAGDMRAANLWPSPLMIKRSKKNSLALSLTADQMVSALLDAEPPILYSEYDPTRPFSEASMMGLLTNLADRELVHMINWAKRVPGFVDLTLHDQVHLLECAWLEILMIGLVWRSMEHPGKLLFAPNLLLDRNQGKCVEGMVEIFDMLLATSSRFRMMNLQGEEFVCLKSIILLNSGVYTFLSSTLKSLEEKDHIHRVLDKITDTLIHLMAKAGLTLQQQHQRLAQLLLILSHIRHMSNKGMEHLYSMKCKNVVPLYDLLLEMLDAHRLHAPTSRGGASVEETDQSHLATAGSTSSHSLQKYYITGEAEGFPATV
In short: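 ER-α protein levels measured by in-cell western with SP1 antibody, ratioed to DRAQ5 DNA signal and given as percent of untreated controls. Compounds added at 0.3–0.000003 μM final (eleven semilog points) to adherent MCF-7 cells in stripped serum; exposure 4 or 24 h before fixation.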

O=C(O)/C=C/c1ccc(/C(=C(/CCF)c2ccc(Cl)cc2Cl)c2ccc3[nH]ncc3c2F)cc1 [Compound 122, (E)-3-(4-((E)-2-(2,4-Dichlorophenyl)-4-fluoro-1-(4-fluoro-1H-indazol-5-yl)but-1-en-1-yl)phenyl)acrylic acid]
MCF7 Viability Assay Max Response (MCF-7 cells): ++ (++ = a single % value ≧ 40%)
IC50 (MCF-7 cells): ≤ 100 nM
Emax (ER-α): ≥ 40%
DC50 (ER-α): ≤ 100 nM

O=C(O)/C=C/c1ccc(/C(=C(\c2ccccc2)C2CC2)c2ccc3[nH]ncc3c2F)cc1 [Compound 75, (E)-3-(4-((E)-2-Cyclopropyl-1-(4-fluoro-1H-indazol-5-yl)-2-phenylvinyl)phenyl)acrylic acid]
MCF7 Viability Assay Max Response (MCF-7 cells): ++ (++ = a single % value ≧ 40%)
IC50 (MCF-7 cells): ≤ 100 nM
Emax (ER-α): ≥ 40%
DC50 (ER-α): ≤ 100 nM

O=C(O)/C=C/c1ccc(/C(=C(\c2ccc(Cl)cc2Cl)C2CC2)c2ccc3[nH]ncc3c2)cc1 [Compound 125, (E)-3-(4-((E)-2-Cyclopropyl-2-(2,4-dichlorophenyl)-1-(1H-indazol-5-yl)vinyl)phenyl)acrylic acid]
MCF7 Viability Assay Max Response (MCF-7 cells): ++ (++ = a single % value ≧ 40%)
IC50 (MCF-7 cells): ≤ 100 nM
Emax (ER-α): ≥ 40%
DC50 (ER-α): ≤ 100 nM

O=C(O)/C=C/c1ccc(/C(=C(\c2ccc(F)cc2Cl)C2CC2)c2ccc3[nH]ncc3c2F)cc1 [Compound 124, (E)-3-(4-((E)-2-(2-Chloro-4-fluorophenyl)-2-cyclopropyl-1-(4-fluoro-1H-indazol-5-yl)vinyl)phenyl)acrylic acid]
MCF7 Viability Assay Max Response (MCF-7 cells): ++ (++ = a single % value ≧ 40%)
IC50 (MCF-7 cells): ≤ 100 nM
Emax (ER-α): ≥ 40%
DC50 (ER-α): ≤ 100 nM

CC/C(=C(/c1ccc(/C=C/C(=O)O)cc1)c1ccc2[nH]ncc2c1F)c1ccccc1 [Compound 49, (E)-3-(4-((E)-1-(4-Fluoro-1H-indazol-5-yl)-2-phenylbut-1-en-1-yl)phenyl)acrylic acid]
MCF7 Viability Assay Max Response (MCF-7 cells): ++ (++ = a single % value ≧ 40%)
IC50 (MCF-7 cells): ≤ 100 nM
Emax (ER-α): ≥ 40%
DC50 (ER-α): ≤ 100 nM

CCCCOc1ccc(/C(CC)=C(\c2ccc(/C=C/C(=O)O)cc2)c2ccc3[nH]ncc3c2)cc1 [Compound 97, (E)-3-(4-((E)-2-(4-Butoxyphenyl)-1-(1H-indazol-5-yl)but-1-en-1-yl)phenyl)acrylic acid]
MCF7 Viability Assay Max Response (MCF-7 cells): ++ (++ = a single % value ≧ 40%)
IC50 (MCF-7 cells): ≤ 100 nM
Emax (ER-α): ≥ 40%
DC50 (ER-α): ≤ 100 nM

CC/C(=C(/c1ccc(/C=C/C(=O)O)cc1)c1ccc2[nH]ncc2c1)c1cc(S(C)(=O)=O)ccc1C [Compound 127, (E)-3-(4-((E)-1-(1H-Indazol-5-yl)-2-(2-methyl-5-(methylsulfonyl)phenyl)but-1-en-1-yl)phenyl)acrylic acid]
MCF7 Viability Assay Max Response (MCF-7 cells): + (+ = a single % value < 40%)
IC50 (MCF-7 cells): > 100 nM
Emax (ER-α): < 40%
DC50 (ER-α): > 100 nM

CC/C(=C(/c1ccc(/C=C/C(=O)O)cc1)c1ccc2[nH]ncc2c1)c1ccccc1OC [Compound 12, (E)-3-(4-((E)-1-(1H-Indazol-5-yl)-2-(2-methoxyphenyl)but-1-en-1-yl)phenyl)acrylic acid]
MCF7 Viability Assay Max Response (MCF-7 cells): ++ (++ = a single % value ≧ 40%)
IC50 (MCF-7 cells): ≤ 100 nM
Emax (ER-α): ≥ 40%

CC/C(=C(/c1ccc(/C=C/C(=O)O)cc1)c1cc(F)c2[nH]ncc2c1)c1ccc(Cl)cc1Cl [Compound 134, (E)-3-(4-((E)-2-(2,4-Dichlorophenyl)-1-(7-fluoro-1H-indazol-5-yl)but-1-en-1-yl)phenyl)acrylic acid]
MCF7 Viability Assay Max Response (MCF-7 cells): ++ (++ = a single % value ≧ 40%)
IC50 (MCF-7 cells): ≤ 100 nM
Emax (ER-α): ≥ 40%
DC50 (ER-α): ≤ 100 nM

O=C(O)/C=C/c1ccc(/C(=C(\c2ccc(Cl)cc2Cl)C2CC2)c2ccc3[nH]ncc3c2F)cc1 [Compound 123, (E)-3-(4-((E)-2-Cyclopropyl-2-(2,4-dichlorophenyl)-1-(4-fluoro-1H-indazol-5-yl)vinyl)phenyl)acrylic acid]
MCF7 Viability Assay Max Response (MCF-7 cells): ++ (++ = a single % value ≧ 40%)
IC50 (MCF-7 cells): ≤ 100 nM
Emax (ER-α): ≥ 40%
DC50 (ER-α): ≤ 100 nM

CC/C(=C(/c1ccc(/C=C/C(=O)O)cc1)c1ccc2[nH]ncc2c1)c1cccc(Cl)c1 [Compound 15, (E)-3-(4-((E)-2-(3-Chlorophenyl)-1-(1H-indazol-5-yl)but-1-en-1-yl)phenyl)acrylic acid]
MCF7 Viability Assay Max Response (MCF-7 cells): ++ (++ = a single % value ≧ 40%)
IC50 (MCF-7 cells): ≤ 100 nM
Emax (ER-α): ≥ 40%

O=C(O)/C=C/c1ccc(/C(=C(/CCCl)c2ccccc2)c2ccc3[nH]ncc3c2F)cc1 [Compound 76, (E)-3-(4-((E)-4-Chloro-1-(4-fluoro-1H-indazol-5-yl)-2-phenylbut-1-en-1-yl)phenyl)acrylic acid]
MCF7 Viability Assay Max Response (MCF-7 cells): ++ (++ = a single % value ≧ 40%)
IC50 (MCF-7 cells): ≤ 100 nM
Emax (ER-α): ≥ 40%
DC50 (ER-α): ≤ 100 nM

CC/C(=C(/c1ccc(/C=C/C(=O)O)cc1)c1ccc2[nH]ncc2c1)c1ccc(C#N)cc1C [Compound 142, (E)-3-(4-((E)-2-(4-Cyano-2-methylphenyl)-1-(1H-indazol-5-yl)but-1-en-1-yl)phenyl)acrylic acid]
MCF7 Viability Assay Max Response (MCF-7 cells): ++ (++ = a single % value ≧ 40%)
IC50 (MCF-7 cells): ≤ 100 nM
Emax (ER-α): ≥ 40%

CC/C(=C(/c1ccc(/C=C/C(=O)O)cc1)c1ccc2[nH]ncc2c1)c1ccc(OC)cc1F [Compound 129, (E)-3-(4-((E)-2-(2-Fluoro-4-methoxyphenyl)-1-(1H-indazol-5-yl)but-1-en-1-yl)phenyl)acrylic acid]
MCF7 Viability Assay Max Response (MCF-7 cells): ++ (++ = a single % value ≧ 40%)
IC50 (MCF-7 cells): ≤ 100 nM
Emax (ER-α): ≥ 40%
DC50 (ER-α): ≤ 100 nM

CC/C(=C(/c1ccc(/C=C/C(=O)O)cc1)c1ccc2[nH]ncc2c1)c1cc(F)ccc1C [Compound 30, (E)-3-(4-((E)-2-(5-Fluoro-2-methylphenyl)-1-(1H-indazol-5-yl)but-1-en-1-yl)phenyl)acrylic acid]
MCF7 Viability Assay Max Response (MCF-7 cells): ++ (++ = a single % value ≧ 40%)
IC50 (MCF-7 cells): ≤ 100 nM
Emax (ER-α): ≥ 40%
DC50 (ER-α): ≤ 100 nM

CC/C(=C(/c1ccc(/C=C/C(=O)O)cc1)c1ccc2[nH]ncc2c1)c1ccc(OC)cc1 [Compound 13, (E)-3-(4-((E)-1-(1H-Indazol-5-yl)-2-(4-methoxyphenyl)but-1-en-1-yl)phenyl)acrylic acid]
MCF7 Viability Assay Max Response (MCF-7 cells): ++ (++ = a single % value ≧ 40%)
IC50 (MCF-7 cells): ≤ 100 nM
Emax (ER-α): ≥ 40%
DC50 (ER-α): ≤ 100 nM

CC/C(=C(/c1ccc(/C=C/C(=O)O)cc1)c1ccc2[nH]ncc2c1F)c1ccc(F)cc1C [Compound 69, (E)-3-(4-((E)-1-(4-Fluoro-1H-indazol-5-yl)-2-(4-fluoro-2-methylphenyl)but-1-en-1-yl)phenyl)acrylic acid]
MCF7 Viability Assay Max Response (MCF-7 cells): ++ (++ = a single % value ≧ 40%)
IC50 (MCF-7 cells): ≤ 100 nM
Emax (ER-α): ≥ 40%
DC50 (ER-α): ≤ 100 nM

O=C(O)/C=C/c1ccc(/C(=C(\c2ccc(F)cc2Cl)C2CCC2)c2ccc3[nH]ncc3c2)cc1 [Compound 85, (E)-3-(4-((E)-2-(2-Chloro-4-fluorophenyl)-2-cyclobutyl-1-(1H-indazol-5-yl)vinyl)phenyl)acrylic acid]
MCF7 Viability Assay Max Response (MCF-7 cells): ++ (++ = a single % value ≧ 40%)
IC50 (MCF-7 cells): ≤ 100 nM
Emax (ER-α): ≥ 40%
DC50 (ER-α): ≤ 100 nM

CC/C(=C(/c1ccc(/C=C/C(=O)O)cc1)c1ccc2[nH]ncc2c1)c1ccccc1 [Compound 2, (E)-3-(4-((E)-1-(1H-Indazol-5-yl)-2-phenylbut-1-en-1-yl)phenyl)acrylic acid]
MCF7 Viability Assay Max Response (MCF-7 cells): ++ (++ = a single % value ≧ 40%)
IC50 (MCF-7 cells): ≤ 100 nM
Emax (ER-α): ≥ 40%

CC/C(=C(/c1ccc(/C=C/C(=O)O)cc1)c1ccc2c(cnn2C(F)F)c1)c1ccc(F)cc1Cl [Compound 148, (E)-3-(4-((E)-2-(2-Chloro-4-fluorophenyl)-1-(1-(difluoromethyl)-1H-indazol-5-yl)but-1-en-1-yl)phenyl)acrylic acid]
MCF7 Viability Assay Max Response (MCF-7 cells): ++ (++ = a single % value ≧ 40%)
IC50 (MCF-7 cells): ≤ 100 nM
Emax (ER-α): ≥ 40%
DC50 (ER-α): ≤ 100 nM

CC/C(=C(/c1ccc(/C=C/C(=O)O)cc1)c1ccc2[nH]ncc2c1)c1ccc(F)cc1C(F)(F)F [Compound 116, (E)-3-(4-((E)-2-(4-Fluoro-2-(trifluoromethyl)phenyl)-1-(1H-indazol-5-yl)but-1-en-1-yl)phenyl)acrylic acid]
MCF7 Viability Assay Max Response (MCF-7 cells): ++ (++ = a single % value ≧ 40%)
IC50 (MCF-7 cells): ≤ 100 nM
Emax (ER-α): ≥ 40%
DC50 (ER-α): ≤ 100 nM

O=C(O)/C=C/c1ccc(/C(=C(/CCF)c2ccccc2)c2ccc3[nH]ncc3c2F)cc1 [Compound 79, (E)-3-(4-((E)-4-Fluoro-1-(4-fluoro-1H-indazol-5-yl)-2-phenylbut-1-en-1-yl)phenyl)acrylic acid]
MCF7 Viability Assay Max Response (MCF-7 cells): ++ (++ = a single % value ≧ 40%)
IC50 (MCF-7 cells): ≤ 100 nM
Emax (ER-α): ≥ 40%
DC50 (ER-α): ≤ 100 nM
